Data taken from the supplement of paper PMC11061612.

Legend:
Assay in all cases: Bliss excess, mean over the matrix (fraction); higher = more synergy
[1] = test system: SKG-IIIa (Cervical Carcinoma)
In short: (§1)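 Cell lines grown in DMEM/F12 or RPMI with 10% FBS were plated in 1536-well plates and held 24 hours at 37°C, 5% CO2 before 72 hours of exposure to two-drug dose matrices, with DMSO typically at 0.2%. CellTiter-Glo 2.0 luminescence gave viability, which was converted to inhibition. Vehicle wells were set to 0 and blank wells to 1. Combination Emax is the second-highest inhibition in the matrix, and Bliss excess is the observed combination effect minus the expected EA + EB − EA·EB, where EA and EB are the single-agent effects.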

[2] = test system: CPC-N (Small Cell Lung Carcinoma)
In short: as §1

[3] = test system: PL4 (Pancreatic Carcinoma)
In short: as §1

ES6 (Ewing's Sarcoma) = test system: ES6 (Ewing's Sarcoma)
In short: as §1

T47D (Breast Carcinoma) = test system: T47D (Breast Carcinoma)
In short: as §1

[4] = test system: MOLP-8 (Plasma Cell Myeloma)
In short: as §1

[5] = test system: NCI-H3118 (Head and Neck Carcinoma)
In short: as §1

[6] = test system: CL-11 (Colorectal Carcinoma)
In short: as §1

WM35 (Melanoma) = test system: WM35 (Melanoma)
In short: as §1

[7] = test system: RCC-JW (Kidney Carcinoma)
In short: as §1

[8] = test system: OAW-28 (Ovarian Carcinoma)
In short: as §1

[9] = test system: OVCAR-3 (Ovarian Carcinoma)
In short: as §1

[10] = test system: P32-ISH (Burkitt's Lymphoma)
In short: as §1

[11] = test system: LS-1034 (Colorectal Carcinoma)
In short: as §1

UACC-257 (Melanoma) = test system: UACC-257 (Melanoma)
In short: as §1

[12] = test system: SUP-M2 (T-Cell Non-Hodgkin's Lymphoma)
In short: as §1

[13] = test system: NCI-H596 (Other Solid Carcinomas)
In short: as §1

[14] = test system: PA-TU-8988T (Pancreatic Carcinoma)
In short: as §1

[15] = test system: SK-CO-1 (Colorectal Carcinoma)
In short: as §1

[16] = test system: SNU-407 (Colorectal Carcinoma)
In short: as §1

Compound | Bliss excess [1] | Bliss excess [2] | Bliss excess [3] | Bliss excess (ES6 (Ewing's Sarcoma)) | Bliss excess (T47D (Breast Carcinoma)) | Bliss excess [4] | Bliss excess [5] | Bliss excess [6] | Bliss excess (WM35 (Melanoma)) | Bliss excess [7] | Bliss excess [8] | Bliss excess [9] | Bliss excess [10] | Bliss excess [11] | Bliss excess (UACC-257 (Melanoma)) | Bliss excess [12] | Bliss excess [13] | Bliss excess [14] | Bliss excess [15] | Bliss excess [16]
CN(C)CCCOc1ccc(-c2ccc3ncc4c(c3c2)n(C2CCOCC2)c(=O)n4C)cn1 [AZD0156] + C=CCn1c(=O)c2cnc(Nc3ccc(N4CCN(C)CC4)cc3)nc2n1-c1cccc(C(C)(C)O)n1 [AZD1775] (first compound max 1 µM, partner max 1 µM) | -0.0565 | -0.0025 | -0.0586 | -0.0501 | 0.0108 | -0.0739 | -0.0933 | -0.0547 | -0.0166 | -0.061 | -0.0386 | -0.02 | -0.011 | -0.0318 | -0.0223 | 0.0535 | 0.0029 | -0.0504 | -0.0523 | -0.0136
CN(C)CCCOc1ccc(-c2ccc3ncc4c(c3c2)n(C2CCOCC2)c(=O)n4C)cn1 [AZD0156] + CCN(CCO)CCCOc1ccc2c(Nc3cc(CC(=O)Nc4cccc(F)c4)[nH]n3)ncnc2c1 [AZD2811] (first compound max 1 µM, 7x7, partner max 1 µM) | -0.05 | 0.0049 | 0.0286 | -0.0766 | -0.0062 | -0.0308 | -0.0316 | -0.0288 | -0.0426 | -0.0243 | -0.0061 | -0.01 | -0.0042 | -0.0261 | -0.039 | -0.0286 | -0.005 | 0.0079 | 0.0205 | -0.0247
CN(C)CCCOc1ccc(-c2ccc3ncc4c(c3c2)n(C2CCOCC2)c(=O)n4C)cn1 [AZD0156] + C[C@@H]1COCCN1C2=NC(=NC(=C2)C3(CC3)[S@](=N)(=O)C)C4=C5C=CNC5=NC=C4 [AZD6738] (first compound max 1 µM, 7x7, partner max 10 µM) | -0.0555 | 0.0316 | 0.0862 | -0.0076 | -0.0223 | 0.0203 | -0.0235 | -0.0265 | 0.0618 | -0.0531 | -0.0279 | 0.0353 | 0.0435 | 0.0161 | -0.0338 | 0.0555 | -0.009 | 0.0423 | -0.0865 | -0.0322
CN(C)CCCOc1ccc(-c2ccc3ncc4c(c3c2)n(C2CCOCC2)c(=O)n4C)cn1 [AZD0156] + O=C(c1cc(Cc2n[nH]c(=O)c3ccccc23)ccc1F)N1CCN(C(=O)C2CC2)CC1 [Olaparib] (first compound max 3 µM, partner max 3 µM) | -0.0324 | 0.0237 | 0.018 | -0.005 | 0.0296 | 0.0151 | 0.0479 | 0.0647 | -0.0272 | 0.0299 | 0.0871 | -0.0371 | 0.211 | 0.0657 | -0.0055 | 0.202 | 0.0282 | 0.0235 | -0.0173 | -0.0122
C=CCn1c(=O)c2cnc(Nc3ccc(N4CCN(C)CC4)cc3)nc2n1-c1cccc(C(C)(C)O)n1 [AZD1775] + C1CN(CCC1(C(=O)N[C@@H](CCO)C2=CC=C(C=C2)Cl)N)C3=NC=NC4=C3C=CN4 [Capivasertib] (first compound max 3 µM, partner max 3 µM) | -0.0139 | -0.0415 | -0.0549 | – | -0.031 | 0.0286 | -0.0253 | -0.0499 | – | -0.0527 | 0.0019 | -0.025 | 0.0417 | -0.0125 | -0.0383 | 0.0518 | -0.0987 | -0.0264 | -0.0603 | -0.027
C=CCn1c(=O)c2cnc(Nc3ccc(N4CCN(C)CC4)cc3)nc2n1-c1cccc(C(C)(C)O)n1 [AZD1775] + C[C@@H]1COCCN1C2=NC(=NC(=C2)C3(CC3)[S@](=N)(=O)C)C4=C5C=CNC5=NC=C4 [AZD6738] (first compound max 1 µM, partner max 10 µM) | -0.0378 | 0.0072 | 0.0501 | 0.0509 | -0.0302 | -0.0064 | 0.0218 | -0.0047 | 0.0626 | 0.0571 | 0.0012 | 0.113 | 0.0304 | 0.0097 | 0.0398 | -0.0015 | 0.0323 | 0.0222 | -0.0067 | 0.0031
C=CCn1c(=O)c2cnc(Nc3ccc(N4CCN(C)CC4)cc3)nc2n1-c1cccc(C(C)(C)O)n1 [AZD1775] + O=C(c1cc(Cc2n[nH]c(=O)c3ccccc23)ccc1F)N1CCN(C(=O)C2CC2)CC1 [Olaparib] (first compound max 1 µM, partner max 10 µM) | -0.0648 | 0.0183 | 0.0037 | 0.0465 | -0.0095 | -0.0294 | -0.0301 | -0.0099 | -0.0146 | -0.0005 | -0.0237 | 0.0351 | -0.0323 | 0.0299 | -0.0197 | 0.0276 | -0.0963 | -0.0094 | -0.0858 | -0.0364
COc1nnc2ccc(N3CCC(c4ccc(OCCN5CCN(C)C(=O)[C@H]5C)cc4)CC3)nn12 [AZD5153] + CN(CC[C@H](CSC1=CC=CC=C1)NC2=C(C=C(C=C2)S(=O)(=O)NC(=O)C3=CC=C(C=C3)N4CCC(CC4)[C@H](C5=CC=CC=C5C6=CC=C(C=C6)Cl)O)S(=O)(=O)C(F)(F)F)CCO [AZD4320] (first compound max 1 µM, 7x7, partner max 1 µM) | – | – | 0.0732 | – | 0.055 | 0.0239 | – | 0.0136 | 0.0983 | – | 0.0297 | 0.0914 | -0.0595 | – | 0.0654 | -0.0028 | 0.0028 | 0.048 | – | 0.0156
Cc1c2c(nn1C)CSCc1cc(n(C)n1)CSc1cc(c3ccccc3c1)OCCCc1c(C(=O)O)n(C)c3c-2c(Cl)ccc13 [AZD5991] + CCN(CCO)CCCOc1ccc2c(Nc3cc(CC(=O)Nc4cccc(F)c4)[nH]n3)ncnc2c1 [AZD2811] (first compound max 1 µM, 7x7, partner max 1 µM) | 0.0203 | 0.0311 | 0.0467 | 0.0337 | -0.0096 | 0.0543 | 0.0796 | -0.021 | 0.0333 | 0.0024 | 0.095 | 0.0647 | -0.0194 | -0.0173 | – | 0.0104 | -0.102 | 0.0689 | -0.0337 | -0.034
Cc1c2c(nn1C)CSCc1cc(n(C)n1)CSc1cc(c3ccccc3c1)OCCCc1c(C(=O)O)n(C)c3c-2c(Cl)ccc13 [AZD5991] + C[C@@H](Nc1cc(F)cc(F)c1)c1cc(C(=O)N(C)C)cc2c(=O)cc(N3CCOCC3)oc12 [AZD8186] (first compound max 1 µM, 7x7, partner max 3 µM) | -0.0411 | -0.0085 | 0.0356 | 0.0045 | -0.0323 | 0.0039 | -0.0161 | -0.0377 | 0.0064 | 0.0126 | 0.0538 | 0.0423 | 0.0273 | -0.0142 | -0.0234 | -0.0203 | – | 0.0295 | -0.0398 | -0.0139
CC(=O)c1c(C)c2cnc(Nc3ccc(N4CCNCC4)cn3)nc2n(C2CCCC2)c1=O [Palbociclib] + CN(CC[C@H](CSC1=CC=CC=C1)NC2=C(C=C(C=C2)S(=O)(=O)NC(=O)C3=CC=C(C=C3)N4CCC(CC4)[C@H](C5=CC=CC=C5C6=CC=C(C=C6)Cl)O)S(=O)(=O)C(F)(F)F)CCO [AZD4320] (first compound max 10 µM, 7x7, partner max 1 µM) | – | – | -0.0826 | – | -0.0628 | 0.0145 | – | 0.0021 | -0.114 | – | -0.004 | -0.0429 | 0.0075 | – | -0.0668 | 0.0414 | -0.0578 | -0.0213 | – | -0.0556
CCc1c2c(nc3ccc(O)cc13)-c1cc3c(c(=O)n1C2)COC(=O)[C@]3(O)CC [SN-38] + O=C(c1cc(Cc2n[nH]c(=O)c3ccccc23)ccc1F)N1CCN(C(=O)C2CC2)CC1 [Olaparib] (first compound max 0.3 µM, 7x7, partner max 10 µM) | 0.0602 | 0.105 | 0.0386 | 0.13 | 0.0623 | 0.0336 | 0.106 | 0.0626 | 0.0733 | 0.112 | – | 0.0986 | 0.0645 | 0.0494 | 0.0213 | 0.0641 | – | 0.023 | 0.0147 | –
C[C@@H](c1ccc2nccn2c1)n1nnc2ncc(-c3cnn(C)c3)nc21 [Savolitinib] + CN(CC[C@H](CSC1=CC=CC=C1)NC2=C(C=C(C=C2)S(=O)(=O)NC(=O)C3=CC=C(C=C3)N4CCC(CC4)[C@H](C5=CC=CC=C5C6=CC=C(C=C6)Cl)O)S(=O)(=O)C(F)(F)F)CCO [AZD4320] (first compound max 1 µM, 7x7, partner max 1 µM) | – | – | -0.0801 | – | 0 | 0.0014 | – | -0.0216 | -0.051 | – | -0.006 | -0.0388 | -0.022 | – | -0.0529 | -0.058 | -0.018 | -0.0581 | – | -0.319
